This note sets out measurements from publication PMC11469493, “Luteolin target HSPB1 regulates endothelial cell ferroptosis to protect against radiation vascular injury” (PLOS ONE, 2024).

The target in assay [1] is T1, HSPB1 (Homo sapiens, UniProt P04792). Description: SPR (Reichert 4SPR, immobilised HSPB1). It is filed as binding. The arrangement: protein immobilised by EDC/NHS on dextran SPR chip. The following applies: read-out: affinity.
Assay [2] addresses T1, HSPB1. Description: DARTS with Western blot (protection from protease). Type of assay: biochemical. The arrangement: endogenous protein in lysate, detected by Western blot after protease digestion (DARTS). Particulars: cell lysate, room temperature, 20 min with luteolin, protease digestion 15 min.

T1 sequence (P04792 whole entry): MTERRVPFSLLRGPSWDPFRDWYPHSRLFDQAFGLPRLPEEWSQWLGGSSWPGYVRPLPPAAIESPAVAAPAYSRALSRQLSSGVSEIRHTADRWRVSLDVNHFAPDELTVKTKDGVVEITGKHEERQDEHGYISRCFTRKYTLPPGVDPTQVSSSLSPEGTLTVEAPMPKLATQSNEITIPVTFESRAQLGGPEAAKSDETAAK

On to `O=c1cc(-c2ccc(O)c(O)c2)oc2cc(O)cc(O)c12` [luteolin], for which, on HSPB1 [1], the Kd is 23.7 µM. The “DARTS with Western blot (protection from protease)” value on HSPB1 [2] is recorded as “addition of luteolin under the same protease concentration conditions reduced the hydrolysis of HSPB1”.
